# System: tyrosinase
# Assay: In vitro tyrosinase inhibitory activity, colorimeter comparison at 475 nm
# Format: biochemical
# Source text: Test in vitro on the effect of glycolic acid and glycyrrhiza dry extract on tyrosinase inhibitory activity has been carried out based on the Methodology of Maruzene Pharmaceuticals. The anti-tyrosinase activity was investigated by colorimeter comparison at 475 nm and calculated as percentage of the inhibitory activities. (Attached are the results).
smiles,measurement,setting,value
O=C(O)CO [Glycolic acid],% Tyrosinase Inhibition Test 1,Glycolic acid 0.42 mg/5 ml,4.86%
same,% Tyrosinase Inhibition Test 2,Glycolic acid 0.42 mg/5 ml,9.12%
same,% Tyrosinase Inhibition Test 1,Glycolic acid 0.805 mg/5 ml,5.64%
same,% Tyrosinase Inhibition Test 2,Glycolic acid 0.805 mg/5 ml,16.11%
same,% Tyrosinase Inhibition Test 1,Glycolic acid 1.61 mg/5 ml,7.60%
same,% Tyrosinase Inhibition Test 2,Glycolic acid 1.61 mg/5 ml,21.32%
same,% Tyrosinase Inhibition Test 1,Glycolic acid 7.21 mg/5 ml,10.74%
same,% Tyrosinase Inhibition Test 2,Glycolic acid 7.21 mg/5 ml,27.81%

# From patent US5609875A, “Skin whitening composition” (Fischer Pharmaceuticals Ltd., priority 1994, dated 1997)
